In patent US5952390A, “10-substituted 1,8-dihydroxy-9(10H) anthracenone pharmaceuticals” (Teva Pharmaceutical Industries Ltd., priority 1998, dated 1999):
pIC50: −log10 of the molar value.

Legend:
skin = settings: topical/therapeutic application; cited from earlier work
[1] = Lipid peroxidation in bovine brain phospholipid liposomes; settings: Table I (Addendum); n = 3 or more; standard errors average 20%; read-out: LPO IC50
Procedure: Phospholipids were prepared essentially as described by Gutteridge, J. M. C., "The Measurement of Malondialdehyde in Peroxidised Ox-Brain Phospholipid Liposomes", Anal. Biochem., 82, 76-82 (1977). Bovine brain, cooled on ice, was freed from blood vessels and washed repeatedly with 0.15M NaCl, pH 7.4. It was cut to pieces and then macerated with an ultra-turrax, passed through a close-meshed sieve, and extracted four times with four times the volume of acetone. The extraction mixture was filtered by suction to remove the acetone, the residue was dried under vacuum, and then repeatedly extracted with petroleum ether (40-60) using twice the volume of the original brain homogenate. The combined extracts were filtered, dried at 45° C., and dissolved in ether (one fifth of the original brain volume). The mixture was treated with five times the volume of acetone, and the resulting precipitate was collected by suction-filtration, dried and stored under N2 at -20° C. in the dark. Bovine brain phospholipids were weighed into glass tubes and shaken in a vortex mixer (Heidolph) in the presence of five small glass beads (.phi. 4 mm) for 1 min. […]
The following reagents were added to glass tubes in the order and at the final concentrations stated. […] The organic layer was separated by centrifugation at 3000 rpm (15 min) and the absorbance at 532 nm was measured against butanol.

For CCCC(=O)C1c2cccc(O)c2C(=O)c2c(O)cccc21 [Butantrone, 10-Butyryl-Dithranol], the “irritation, in words” value (skin) is given as “commonly elicits a widespread and delayed irritation effect” and the pIC50 [1] is given as 5.40.
